Laboratory results from ChEMBL document CHEMBL4130615, “Evaluation of Diarylheptanoid-Terpene Adduct Enantiomers from Alpinia officinarum for Neuroprotective Activities” (J Nat Prod, 2018).
Calls of active or inactive are those of the source. The calls are words filed in the database; no cut-off is given here.

Key:
Cortical neurone [1] = experiment: Neuroprotective activity against MPP+-induced cell death in Sprague-Dawley rat cortical neurons assessed as increase in cell viability at 4 to 32 uM pretreated for 12 hrs followed by MPP+ challenge measured after 20 hrs by MTT assay; type: functional, cell-based
Cortical neurone [2] = experiment: Neuroprotective activity against MPP+-induced cell death in Sprague-Dawley rat cortical neurons assessed as increase in cell viability at 16 uM pretreated for 12 hrs followed by MPP+ challenge measured after 20 hrs by MTT assay; type: functional, cell-based

Row | Structure (SMILES) | Activity (Cortical neurone [1]) | Activity (Cortical neurone [2])
1 | C=CC(=C)CCC=C(C)C | inactive | –
2 | COc1cc(CC[C@@H]2CC=C(CCC=C(C)C)C[C@H]2C(=O)CCc2ccccc2)ccc1O | inactive | –
3 | COc1cc(CC/C=C/C(=O)CCc2ccccc2)ccc1O | inactive | –
4 | COc1cc(CC[C@H]2CC=C(CCC=C(C)C)C[C@@H]2C(=O)CCc2ccccc2)ccc1O | – | Active
